Measured values published in US7781199B2, “Identification of a JAK2 mutation involved in Vaquez Polyglobulia” (priority 2004, dated 2010).
“Also recorded” adds a separate entry of the source.

What was measured:
[1] = system: wild-type JAK2; assay: Expression of wild-type JAK2 in K562 cells after siRNA treatment; format: cell-based, human; details: 24 hours after treatment (FIG. 10)
Description: FIG. 10: Level of WT Jak2 expression in K562 cells remains unchanged 24 hours after treatment with siRNA specific to Jak2 V617.
Lane Je: K562 cells treated with siRNA WT Jak2
Lanes 0 to 6: K562 cells treated with siRNA V617F Jak2
Lane C−: 293HEK (no expression of JAK2).
(§1) The results are shown FIGS. 8, 9 and 10.

[2] = system: V617F JAK2; assay: Expression of V617F JAK2 in HEL cells after siRNA treatment; format: cell-based, human; details: 24 hours after treatment (FIGS. 8 and 9)
Description: FIGS. 8 and 9: Expression of V617F Jak2 in HEL cells is reduced 24 hours after treatment with siRNA specific to JAK2 V617F Jak2 (siRNA #1, 3 and 4).
Lanes 0 to 6: HEL cells treated (1 to 6) or non-treated (0) with siRNA V617F Jak2.
Lane C+: 293HEK cells transfected with the V617F Jak2RV vector
as §1

Row | Substance | level of WT Jak2 expression [1] | expression of V617F Jak2 protein [2]
1 | siRNA 1: siRNA specific to the V617F JAK2 mutation; said to correspond to SEQ ID No 25 (probably No 29, UGGAGUAUGUUUCUGUGGA) (listed as RNA, chemistry not given here) | without inhibiting | reduced; also recorded: inhibit
2 | siRNA 3: siRNA specific to the V617F JAK2 mutation; said to correspond to SEQ ID No 26 (probably No 30, GGAGUAUGUUUCUGUGGAG) (listed as RNA, chemistry not given here) | without inhibiting | reduced; also recorded: inhibit
3 | siRNA 4: siRNA specific to the V617F JAK2 mutation; said to correspond to SEQ ID No 27 (probably No 31, GAGUAUGUUUCUGUGGAGA) (listed as RNA, chemistry not given here) | without inhibiting | reduced; also recorded: inhibit
